{"source": "patent US8445502B2", "about": "“Pharmaceutical formulations comprising salts of a protein kinase inhibitor and methods of using same” (Astex Pharmaceuticals, Inc., priority 2007, dated 2013)", "key": {"[1]": {"tested_on": "HT-29 colorectal cancer cells", "assay_type": "in vivo", "procedure": "(§1) MP470 and MP470 HCl were tested against different tumor types in athymic nude mice as summarized below (Table 8). Various formulations and routes were evaluated. HT-29 colorectal cancer cells and SB-CL2 melanoma cells were implanted subcutaneously, while A549 lung cancer cells, MiaPaCa-2 pancreatic cancer cells, TT medullary thyroid cancer cells, and OVCAR-3 ovarian cancer cells were implanted […] in the hind flank of mice. All animals were allowed to develop medium-sized (80-125 mg) tumors, before initiation of dosing. Tumor volume and mouse bodyweight were followed over the course of the study.\nHT-29 Colorectal Model—Eighteen athymic nude mice were injected subcutaneously with HT-29 colorectal cancer cells. After tumor formation, animals received either 10 or 20 mg/kg MP470 by intraperitoneal (IP) injection using a qd5×2 wk schedule. On Day 5 of treatment, tumor growth rates in vehicle control animals were 19.5 mm3/d, while MP470-treated animals had tumor growth rates of 1.4 mm3/d (10 mg/kg) and −5.0 mm3/d (20 mg/kg). Tumor growth continued to decline throughout the 14 days of study. On Day 14, the tumor growth rates were 16.4 mm3/d (vehicle) compared to 4.3 mm3/d (10 mg/kg) and 5.5 mm3/d (20 mg/kg) in treated animals."}, "[2]": {"tested_on": "OVCAR-3 ovarian cancer cells", "experiment": "OVCAR-3 ovarian cancer tumor model in nude mice", "assay_type": "in vivo", "procedure": "as §1\nOVCAR-3 Ovarian Cancer Model—Forty-two nude mice were implanted subcutaneously with OVCAR-3 ovarian carcinoma, the hydrochloride salt of MP470 (MP470.HCl) was formulated in 100% corn oil and delivered orally. MP470.HCl, cisplatin, and irinotecan were administered to animals alone or in combination. When administered alone, MP470.HCl was given qd at 100 or 200 mg/kg, irinotecan was given q3d at 20 mg/kg, and cisplatin was given q7d at 5 mg/kg. In combination studies, 100 mg/kg MP470.HCl was given qd and combined with 20 mg/kg irinotecan given q3d or 5 mg/kg cisplatin given q7d. One animal in the 200 mg/kg MP470.HCl group died on Day 1, while five animals in the MP470.HCl/cisplatin combination group died (one on Day 5, Day 6, Day 7, Day, 20, and Day 27). Treatment with each individual agent (200 mg/kg MP470.HCl, 46.2 mm3/d; 20 mg/kg irinotecan, 38.53 mm3/d; 5 mg/kg cisplatin, 33.8 mm3/d) reduced the tumor growth rate below that of vehicle-treated mice (78.04 mm3/d). […] In contrast, when MP470.HCl and cisplatin were used in combination, the tumor growth rate was reduced to 10.22 mm3/d. However, the 100 mg/kg dose of MP470.HCl in combination with cisplatin caused enhanced toxicity and most animals in this group died during the 21-day treatment period. The enhanced toxicity was related to the level of the dose used, so a subsequent study was conducted using half the dose, 50 mg/kg/day as described below."}, "[3]": {"experiment": "in vivo", "conditions": "dog", "procedure": "Two groups of dogs, each consisting of one male and one female, received alternating escalating single doses of 30, 60, 240, 1000, and 2000 mg/kg of the test article. MP470.HCl was administered by capsule. […] No test article related mortalities or clinical signs of toxicity were observed. Test article related effects were limited to emesis following administration of 1000 and 2000 mg/kg doses. Single oral dose NOEL was determined to be 240 mg/kg and the acute oral MTD was 2000 mg/kg (highest dose tested)."}, "[4]": {"tested_on": "Rad51", "experiment": "Rad51 immunohistochemistry in dog colon and skin", "assay_type": "in vivo", "conditions": "for Rad 51 Result: 2 wk post treatment with 300 mg/kg/day × 28, dog 302786", "procedure": "A study was performed to develop a testing procedure for validation of IHC Biomarker RAD51 for the staining of tissue micro arrays (TMA). An experimental […] antibody was used (Spring Bioscience Anti-RAD51) and run using testis and lung as control tissues. The antibody was run using the Dako Envision+ detection kit. The incubation times ranged from 15 minutes to 60 minutes. Each experiment was run with and without an antigen retrieval solution with a pH of 6.0. The dilutions used for the Spring Bioscience Anti-RAD51 ranged from 1:50 to 1:500. The best results were obtained when incubated for 30 minutes, with a dilution of 1:50, using the Dako Envision+ detection kit, with antigen retrieval at the pH of 6.0 based on manual scoring by a board certified pathologist. […] Rare nuclear staining was observed.\nA study was conducted to investigate the changes in RAD51 expression levels after chronic treatment with MP470 hydrochloride salt two weeks post treatment with oral once daily dosing for 28 days at 300 mg/kg compared to the control (vehicle only, no drug) to healthy dogs. Tissue specimens from the colon and skin were analyzed for RAD51 expression using the procedure described above. The data in Table 9 confirm that MP470.HCl suppresses and sustains the suppression of RAD51 expression levels in normal proliferating tissues such as in colon and skin.\nDose-response effects of MP470.HCl on Rad51 were evaluated in normal beagle dogs that were administered MP470.HCl orally. Colon and skin tissues were obtained from five different groups, including vehicle control group, three groups of differing dose levels of MP470.HCl following a 28 day daily treatment with MP470.HCl, and a post-treatment recovery group two weeks after treatment daily for 28 days with 300 mg/kg of MP470.HCl. These tissue specimens were stained for Rad51 using immunohistochemistry (IHC) techniques on an automated staining platform. A mouse Anti-Rad51 antibody was used for this purpose. Positive and negative controls were used to validate the staining procedure. The data is reported as a percentage based on the scoring of the staining intensity by a board-certified pathologist. Staining intensity was reported as mean percent for n=3 in all cases except the recovery group, where n=1."}}, "note": "Where two headings read alike, the source gives them in different places."}
{"smiles": "S=C(NCc1ccc2c(c1)OCO2)N1CCN(c2ncnc3c2oc2ccccc23)CC1", "note": "[MP470, 4-[1]benzofuro[3,2-d]pyrimidin-4-yl-N-(1,3-benzodioxol-5-ylmethyl)piperazine-1-carbothioamide]", "values": [{"measurement": "tumor growth rate", "setting": "[1]; Day 5, 10 mg/kg IP qd5×2 wk (vehicle 19.5)", "value": 1.4, "unit": "mm3/d"}, {"measurement": "tumor growth rate", "setting": "[1]; Day 5, 20 mg/kg IP qd5×2 wk (vehicle 19.5)", "value": "−5.0", "unit": "mm3/d"}, {"measurement": "tumor growth rate", "setting": "[1]; Day 14, 10 mg/kg IP (vehicle 16.4)", "value": 4.3, "unit": "mm3/d"}, {"measurement": "tumor growth rate", "setting": "[1]; Day 14, 20 mg/kg IP (vehicle 16.4)", "value": 5.5, "unit": "mm3/d"}, {"measurement": "Outcome: tumor growth", "setting": "[1]; HT-29 colon, IP 10, 20 mg/kg, (qd × 5) × 2 w, TV-13", "value": "tumor growth was slowed but not reversed"}]}
{"smiles": "Cl.S=C(NCc1ccc2c(c1)OCO2)N1CCN(c2ncnc3c2oc2ccccc23)CC1", "note": "[MP470.HCl, 4-[1]benzofuro[3,2-d]pyrimidin-4-yl-N-(1,3-benzodioxol-5-ylmethyl)piperazine-1-carbothioamide hydrochloride]", "values": [{"measurement": "animals that died", "setting": "[2]; 200 mg/kg MP470.HCl group, Day 1", "value": "One"}, {"measurement": "tumor growth rate", "setting": "[2]; 200 mg/kg qd oral in corn oil (vehicle 78.04)", "value": 46.2, "unit": "mm3/d"}, {"measurement": "Outcome: tumor growth", "setting": "[2]; OVCAR-3, PO 100 or 200 mg/kg, qd × 28, corn oil, hydrochloride", "value": "Dose dependency"}, {"measurement": "MTD at 24 h", "setting": "[3]; both sexes, po", "value": 2000, "unit": "mg/kg"}, {"measurement": "Single oral dose NOEL", "setting": "[3]; both, 24 h", "value": 240, "unit": "mg/kg"}, {"measurement": "Rad51 staining Skin (%)", "setting": "[4]; 30 mg/Kg oral daily 28 days, n=3 (vehicle 20)", "value": 14, "unit": "%"}, {"measurement": "Rad51 staining Colon (%)", "setting": "[4]; 30 mg/Kg oral daily 28 days, n=3 (vehicle 71)", "value": 61, "unit": "%"}, {"measurement": "Rad51 staining Skin (%)", "setting": "[4]; 100 mg/Kg oral daily 28 days, n=3 (vehicle 20)", "value": 17, "unit": "%"}, {"measurement": "Rad51 staining Colon (%)", "setting": "[4]; 100 mg/Kg oral daily 28 days, n=3 (vehicle 71)", "value": 56, "unit": "%"}, {"measurement": "Rad51 staining Skin (%)", "setting": "[4]; 300 mg/Kg oral daily 28 days, n=3 (vehicle 20)", "value": 11, "unit": "%"}, {"measurement": "Rad51 staining Colon (%)", "setting": "[4]; 300 mg/Kg oral daily 28 days, n=3 (vehicle 71)", "value": 35, "unit": "%"}, {"measurement": "suppression of Rad51 in tissues of dogs", "setting": "[4]; 30, 100, 300 mg/kg oral daily 28 days", "value": "dose-dependent suppression of Rad51"}, {"measurement": "Rad 51 Result", "setting": "[4]; Colon", "value": 58, "unit": "%"}, {"measurement": "Rad51 staining Skin (%)", "setting": "[4]; Recovery (2 wk post treatment with 300 mg/kg), n=1 (vehicle 20)", "value": 7, "unit": "%"}, {"measurement": "Rad51 staining Colon (%)", "setting": "[4]; Recovery (2 wk post treatment with 300 mg/kg), n=1 (vehicle 71)", "value": 19, "unit": "%"}, {"measurement": "Rad 51 Result", "setting": "[4]; Skin", "value": 12, "unit": "%"}]}
